# Source: patent publication US7829708B2, “Metabolically inert antifolates for treating disorders of abnormal cellular proliferation and inflammation” (Chelsea Therapeutics, Inc., priority 2004, dated 2010)
# What was measured:
# human DHFR = molecular target: T1, human DHFR (Homo sapiens, UniProt P00374); experiment: Inhibition of recombinant dihydrofolate reductase in vitro; assay type: biochemical; conditions: read-out: I50 (human DHFR)
# T1 sequence (P00374 1-187): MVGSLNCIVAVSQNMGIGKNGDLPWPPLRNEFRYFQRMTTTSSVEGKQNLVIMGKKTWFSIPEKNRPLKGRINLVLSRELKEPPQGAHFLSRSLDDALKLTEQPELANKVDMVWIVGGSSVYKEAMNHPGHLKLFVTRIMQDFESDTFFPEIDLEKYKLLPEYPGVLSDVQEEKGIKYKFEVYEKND
# Source text: (§1) The ability of M-TREX to inhibit recombinant dihydrofolate reductase (DR) and thymidylate synthase (TS) in vitro studied in comparison to other antifolate drugs.
# Human TS = Human TS (Homo sapiens, UniProt P04818); experiment: Inhibition of recombinant thymidylate synthase in vitro; assay type: biochemical; conditions: read-out: I50 (Human TS)
# Source text: as §1
# Human TS, sequence (P04818 whole entry): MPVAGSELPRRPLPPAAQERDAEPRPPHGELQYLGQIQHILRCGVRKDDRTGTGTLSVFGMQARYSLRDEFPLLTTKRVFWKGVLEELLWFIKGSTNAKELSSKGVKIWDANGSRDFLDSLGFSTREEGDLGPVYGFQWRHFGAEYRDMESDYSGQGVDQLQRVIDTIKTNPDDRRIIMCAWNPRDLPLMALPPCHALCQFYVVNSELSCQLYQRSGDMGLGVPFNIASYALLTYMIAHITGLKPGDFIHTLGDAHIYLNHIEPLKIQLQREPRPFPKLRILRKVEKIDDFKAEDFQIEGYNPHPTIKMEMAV
IC50 (human DHFR) [nM],IC50 (Human TS) [nM],SMILES
44,–,"C=C(CC(NC(=O)c1ccc(CCc2cnc3nc(N)nc(N)c3n2)cc1)C(=O)O)C(=O)O (stereo not drawn) [MDAM, methylene-1-deazaaminopterine, reference compound]"
17,3800,"C=C(CC(NC(=O)c1ccc(CCc2ccc3nc(N)nc(N)c3c2)cc1)C(=O)O)C(=O)O (stereo not drawn) [M-TREX, 4-Amino-4-deoxy-5,8,10-trideazapteroyl-4′-methylene glutamic acid]"
